Reference: patent US20260297121A1, “MITHRAMYCIN (MTM) 2’ OXIMES” (University of Kentucky Research Foundation, priority 2023, published 2026)
Read-outs that look alike come from different tables or passages of the source.

Legend:
PC3 [1] = experiment: Cytotoxicity, resazurin fluorescence, PC3; type: cell-based; settings: for GI50 PC3: Table 5, 72 hr; for GI50: Homo sapiens, PC-3, 72 h, read-out: GI50 PC3, Table 5
Protocol: (§1) Exemplary compounds of the presently-disclosed subject matter were assessed for cytotoxicity (Table 5) in Ewing sarcoma (TC32) and non-Ewing (PC3 prostate cancer). […] Cells (1000-5000/well) were seeded in 96-well plates and allowed to attach and grow for 24 hr prior to adding compounds in half-log increments from 0.3 nM-10 μM. Cell viability was assessed after 72 hr continuous incubation with compounds using resazurin fluorescence. GI50 values were estimated using GraphPad Prism.

log P = type: physicochemical
PC3 [2] = experiment: IC50 in PC3 cells; type: cell-based; settings: head prints PC2, text PC3
Protocol: (§2) Exemplary compounds of the presently-disclosed subject matter were assessed for activity, including clearance, potency, and selectivity. Results from studies are compiled in Tables 2-4.
(§3) Desirable clearance was identified at lower values of mL hr^−1kg^−1 (e.g., about ≤10 mL hr^−1 kg^−1), desirable potency was identified at lower values of IC50 (e.g., about ≤10 nM in TC32 cells), and desired selectivity was identified at higher ratios of IC50 in PC3/IC50 in TC32 (e.g. about >10).

TC32 cells = experiment: Potency IC50 in TC32 cells and selectivity; type: cell-based; settings: Homo sapiens
Protocol: as §2, §3

TC32 = experiment: Cytotoxicity, resazurin fluorescence, TC32; type: cell-based; settings: Homo sapiens, TC-32, 72 h, read-out: GI50 TC32, Table 5
Protocol: as §1

[3] = Clearance (CL) / pharmacokinetics; type: in vivo, mice; settings: for clearance: mouse, plasma, iv
Protocol: as §2, §3
Pharmacokinetics of exemplary compounds of the presently-disclosed subject matter were studied in mice following bolus IV dosing. Groups of three mice were administered the compound(s) and blood samples were collected via saphenous bleed. Plasma was separated by centrifugation and extracted to quantitate analytes by LC/MS/MS. Sample analysis followed upon the system meeting system suitability criteria customary for fit for purpose analytical methods. FIG. 1A includes data comparing YL-C09 to mithramycin (MTM) dosed separately. FIG. 1B includes data for YL-B171, YL-C110 and MTM dosed in cassette format.

[4] = Homo sapiens, PC-3, read-out: IC50 PC2, Table 2
[5] = TC-32, Table 2, read-out: IC50 TC32
[6] = Homo sapiens, PC-3, read-out: IC50 PC2, Table 3
[7] = Homo sapiens, PC-3, read-out: IC50 PC2, Table 4
[8] = TC-32, Table 3, read-out: IC50 TC32
[9] = TC-32, Table 4, read-out: IC50 TC32

SMILES	IC50 (PC3 [2]; [4]) [nM]	IC50 (TC32 cells; [5]) [nM]	GI50 (TC32) [nM]	GI50 (PC3 [1]) [nM]	logP (log P; Table 2)	clearance ([3]; Table 2) [mL/min/kg]	CL ([3]; Table 3) [mL/min/kg]	CL ([3]; Table 4) [mL/min/kg]	PK Improvement ([3]; Table 4)	other results
CO[C@H](C(=NOCCNC(=O)c1[nH]c2ccc(C(F)(F)F)cc2c1-c1ccc(F)c(Cl)c1)[C@@H](O)[C@@H](C)O)[C@@H]1Cc2cc3cc(O[C@H]4C[C@@H](O[C@H]5C[C@@H](O)[C@H](O)[C@@H](C)O5)[C@H](O)[C@@H](C)O4)c(C)c(O)c3c(O)c2C(=O)[C@H]1O[C@H]1C[C@@H](O[C@H]2C[C@@H](O[C@H]3C[C@](C)(O)[C@H](O)[C@@H](C)O3)[C@@H](O)[C@@H](C)O2)[C@H](O)[C@@H](C)O1 [YL-C68]										GI50 PC3 (PC3 [1]): > 1000 nM; log P (log P; Table 3): 4.54
CO[C@H](C(=NOCCNC(=O)c1[nH]c2ccc(Cl)cc2c1-c1cnn(C)c1)[C@@H](O)[C@@H](C)O)[C@@H]1Cc2cc3cc(O[C@H]4C[C@@H](O[C@H]5C[C@@H](O)[C@H](O)[C@@H](C)O5)[C@H](O)[C@@H](C)O4)c(C)c(O)c3c(O)c2C(=O)[C@H]1O[C@H]1C[C@@H](O[C@H]2C[C@@H](O[C@H]3C[C@](C)(O)[C@H](O)[C@@H](C)O3)[C@@H](O)[C@@H](C)O2)[C@H](O)[C@@H](C)O1 [YL-C102]	43	7.4	49	334	2.26					
COC(C(=NOCCNC(=O)c1[nH]c2ccc(Cl)cc2c1-c1ccnn1C)C(O)C(C)O)C1Cc2cc3cc(OC4CC(OC5CC(O)C(O)C(C)O5)C(O)C(C)O4)c(C)c(O)c3c(O)c2C(=O)C1OC1CC(OC2CC(OC3CC(C)(O)C(O)C(C)O3)C(O)C(C)O2)C(O)C(C)O1 (stereo not shown) [YL-C104]	23	5.63	34	133	1.77	0.517				
COC(C(=NOCCNC(=O)c1[nH]c2ccc(Cl)cc2c1-c1ccccc1)C(O)C(C)O)C1Cc2cc3cc(OC4CC(OC5CC(O)C(O)C(C)O5)C(O)C(C)O4)c(C)c(O)c3c(O)c2C(=O)C1OC1CC(OC2CC(OC3CC(C)(O)C(O)C(C)O3)C(O)C(C)O2)C(O)C(C)O1 (stereo not shown) [YL-B176]	178	13.9	117	304	3.49	0.35	0.35	0.35	75.1	IC50 (PC3 [2]; [6]): 178 nM; IC50 (PC3 [2]; [7]): 178 nM; IC50 (TC32 cells; [8]): 13.9 nM; IC50 (TC32 cells; [9]): 13.9 nM; logP (log P; Table 3): 3.49; logP (log P; Table 4): 3.5
CO[C@H](C(=NOCCNC(=O)c1[nH]c2ccc(Cl)cc2c1-c1cnoc1)[C@@H](O)[C@@H](C)O)[C@@H]1Cc2cc3cc(O[C@H]4C[C@@H](O[C@H]5C[C@@H](O)[C@H](O)[C@@H](C)O5)[C@H](O)[C@@H](C)O4)c(C)c(O)c3c(O)c2C(=O)[C@H]1O[C@H]1C[C@@H](O[C@H]2C[C@@H](O[C@H]3C[C@](C)(O)[C@H](O)[C@@H](C)O3)[C@@H](O)[C@@H](C)O2)[C@H](O)[C@@H](C)O1 [YL-C108]	40.3	6.12	34	126	1.44	0.4				
COC(C(=NOCCNC(=O)c1[nH]c2ccc(O)cc2c1-c1ccc(Cl)cc1)C(O)C(C)O)C1Cc2cc3cc(OC4CC(OC5CC(O)C(O)C(C)O5)C(O)C(C)O4)c(C)c(O)c3c(O)c2C(=O)C1OC1CC(OC2CC(OC3CC(C)(O)C(O)C(C)O3)C(O)C(C)O2)C(O)C(C)O1 (stereo not shown) [YL-C120]	31.4	7.6	36	66	3.04	0.417				
COC(C(=NOCCNC(=O)c1[nH]c2ccc(Cl)cc2c1-c1cccs1)C(O)C(C)O)C1Cc2cc3cc(OC4CC(OC5CC(O)C(O)C(C)O5)C(O)C(C)O4)c(C)c(O)c3c(O)c2C(=O)C1OC1CC(OC2CC(OC3CC(C)(O)C(O)C(C)O3)C(O)C(C)O2)C(O)C(C)O1 (stereo not shown) [YL-C106]	202	17.2	99	236	3.3	0.317	0.317	0.317	83.1	IC50 (PC3 [2]; [6]): 202 nM; IC50 (PC3 [2]; [7]): 202 nM; IC50 (TC32 cells; [8]): 17 nM; IC50 (TC32 cells; [9]): 17.2 nM; logP (log P; Table 3): 3.3; logP (log P; Table 4): 3.3
COC(C(=NOCCNC(=O)c1[nH]c2ccc(C(F)(F)F)cc2c1-c1ccccc1)C(O)C(C)O)C1Cc2cc3cc(OC4CC(OC5CC(O)C(O)C(C)O5)C(O)C(C)O4)c(C)c(O)c3c(O)c2C(=O)C1OC1CC(OC2CC(OC3CC(C)(O)C(O)C(C)O3)C(O)C(C)O2)C(O)C(C)O1 (stereo not shown) [YL-C66]							0.2	0.2	131.5	IC50 (PC3 [2]; Table 3): 283 nM; log P (log P; Table 3): 3.84; log P (log P; Table 4): 3.8
COC(C(=NOCCCNC(=O)c1[nH]c2ccc(Cl)cc2c1-c1ccc(Cl)cc1)C(O)C(C)O)C1Cc2cc3cc(OC4CC(OC5CC(O)C(O)C(C)O5)C(O)C(C)O4)c(C)c(O)c3c(O)c2C(=O)C1OC1CC(OC2CC(OC3CC(C)(O)C(O)C(C)O3)C(O)C(C)O2)C(O)C(C)O1 (stereo not shown) [YL-C95]										GI50 PC3 (PC3 [1]): > 1000 nM; log P (log P; Table 2): 4.69; CL ([3]; Table 2): 0.433 mL/min/kg
CO[C@H](C(=NOCCNC(=O)c1[nH]c2ccc(Cl)cc2c1-c1ccc(Cl)cc1)[C@@H](O)[C@@H](C)O)[C@@H]1Cc2cc3cc(O[C@H]4C[C@@H](O[C@H]5C[C@@H](O)[C@H](O)[C@@H](C)O5)[C@H](O)[C@@H](C)O4)c(C)c(O)c3c(O)c2C(=O)[C@H]1O[C@H]1C[C@@H](O[C@H]2C[C@@H](O[C@H]3C[C@](C)(O)[C@H](O)[C@@H](C)O3)[C@@H](O)[C@@H](C)O2)[C@H](O)[C@@H](C)O1 [YL-C82]	515	20.2	356	805	4.21	0.383	0.383	0.383	68.6	IC50 (PC3 [2]; [6]): 218 nM; IC50 (PC3 [2]; [7]): 515 nM; IC50 (TC32 cells; [9]): 20.2 nM; IC50 (TC32 cells; TC-32, read-out: IC50 TC32, Table 3): 12 nM; logP (log P; Table 3): 4.21; logP (log P; Table 4): 4.2
CO[C@H](C(=NOCCNC(=O)c1cc2cc(Cl)ccc2[nH]1)[C@@H](O)[C@@H](C)O)[C@@H]1Cc2cc3cc(O[C@H]4C[C@@H](O[C@H]5C[C@@H](O)[C@H](O)[C@@H](C)O5)[C@H](O)[C@@H](C)O4)c(C)c(O)c3c(O)c2C(=O)[C@H]1O[C@H]1C[C@@H](O[C@H]2C[C@@H](O[C@H]3C[C@](C)(O)[C@H](O)[C@@H](C)O3)[C@@H](O)[C@@H](C)O2)[C@H](O)[C@@H](C)O1 [YL-B152]	17.6	8.34			2.19	0.733		0.733	35.9	IC50 (PC3 [2]; [7]): 17.6 nM; IC50 (TC32 cells; [9]): 8.3 nM; logP (log P; Table 4): 2.2
COC(C(=NOCc1[nH]c2ccc(Cl)cc2c1-c1ccccc1)C(O)C(C)O)C1Cc2cc3cc(OC4CC(OC5CC(O)C(O)C(C)O5)C(O)C(C)O4)c(C)c(O)c3c(O)c2C(=O)C1OC1CC(OC2CC(OC3CC(C)(O)C(O)C(C)O3)C(O)C(C)O2)C(O)C(C)O1 (stereo not shown) [YL-C51]	2790	456	> 1000		4.19	0.25				GI50 PC3 (PC3 [1]): > 1000 nM
CO[C@H](C(=NOCCNC(=O)c1[nH]c2ccc(Cl)cc2c1-c1cncnc1)[C@@H](O)[C@@H](C)O)[C@@H]1Cc2cc3cc(O[C@H]4C[C@@H](O[C@H]5C[C@@H](O)[C@H](O)[C@@H](C)O5)[C@H](O)[C@@H](C)O4)c(C)c(O)c3c(O)c2C(=O)[C@H]1O[C@H]1C[C@@H](O[C@H]2C[C@@H](O[C@H]3C[C@](C)(O)[C@H](O)[C@@H](C)O3)[C@@H](O)[C@@H](C)O2)[C@H](O)[C@@H](C)O1 [YL-C122]	124	18.5	162	477	1.73	0.683				
CO[C@H](C(=NOCCNC(=O)c1[nH]c2ccc(C(F)(F)F)cc2c1-c1ccc(Cl)cc1)[C@@H](O)[C@@H](C)O)[C@@H]1Cc2cc3cc(O[C@H]4C[C@@H](O[C@H]5C[C@@H](O)[C@H](O)[C@@H](C)O5)[C@H](O)[C@@H](C)O4)c(C)c(O)c3c(O)c2C(=O)[C@H]1O[C@H]1C[C@@H](O[C@H]2C[C@@H](O[C@H]3C[C@](C)(O)[C@H](O)[C@@H](C)O3)[C@@H](O)[C@@H](C)O2)[C@H](O)[C@@H](C)O1 [YL-C67]							0.167	0.167	157.8	IC50 (PC3 [2]; Table 3): 1230 nM; GI50 PC3 (PC3 [1]): > 1000 nM; log P (log P; Table 2): 4.56; log P (log P; Table 3): 4.56; log P (log P; Table 4): 4.6; CL ([3]; Table 2): 0.167 mL/min/kg
